Common to all, as to assay type: cell-based
Data set [1] concerns the target T1, rKV1.1 (Rattus norvegicus, UniProt P10499).
T1 construct: expressed in transfected cells; host or cells: Xenopus laevis oocytes injected with cRNA
Description: Two-electrode voltage-clamp on Xenopus laevis oocytes expressing rKV1.1. As to conditions: for IC50: concentration-response curve, percentage blocked current fitted with Hill equation, TEVC oocytes, 0 mV from −90 mV, read-out: KV1.1 IC50. How it is done:
(§1) The pharmacological effect of AbeTx1 was analyzed by heterologous expression of 12 voltage-gated potassium channels isoforms (rKV1.1, Genbank NM173095; rKV1.2, Genbank NM012970; hKV1.3, Genbank L23499; rKV1.4,Genbank NM012971; rKV1.5, Genbank NM012972; rKV1.6, Genbank NM575671; Shaker IR from Drosophila melanogaster, Genbank CG12348; rKV2.1, Genbank NM013186; hKV3.1, Genbank NM004976; rKV4.2, Genbank NM031730; rKV4.3, Genbank NM031739 and hERG, Genbank NM000238), and three voltage-gated sodium channel subtypes (rNaV1.2, Genbank NM012647; rNaV1.4, Genbank M26643 and BgNaV1.1, from Blattella germanica) (r, rat; h, human) in oocytes from Xenopus laevis. The linearized plasmids were transcribed using a T7 or SP6 mMESSAGE-mMACHINE transcription kit (Life Technologies, Austin, TX, USA). Oocytes were injected with 20–50 nL of cRNA at a concentration of 1 ng·nL^−1 using a microinjector (Drummond Scientific, Broomall, PA, USA). The oocytes were stored for 1–3 days at 16 °C until sufficient expression of voltage-gated ion channels was achieved. Oocytes were maintained in an ND96 solution (in mM: 96 NaCl, 2 KCl, 1.8 CaCl2, 2 MgCl2 and 5 HEPES; pH 7.4), supplemented with 50 µg·mL^−1 gentamicin sulfate.
(§2) Two-electrode voltage-clamp recordings were performed at room temperature (18–22 °C) using a Geneclamp 500 amplifier (Molecular Devices, Sunnyvale, CA, USA) controlled by a pClamp data acquisition system (Axon Instruments, Union City, CA, USA). ND96 was used as bath solution. Whole-cell currents from oocytes were recorded 1–3 days after injection. Voltage and current electrodes were filled with KCl (3 M). The resistance of both electrodes was kept between 0.8–1.0 MΩ. The elicited currents were filtered at 0.5 or 2 kHz using a four-pole low-pass Bessel filter. Leak subtraction was performed using a -P/4 protocol. KV1.1-KV1.6 and Shaker IR currents were evoked by 500 ms depolarization to 0 mV, followed by a 500 ms pulse to −50 mV, from a holding potential of −90 mV. KV2.1, KV3.1, KV4.2, and KV4.3 currents were elicited by 500 ms pulses to + 20 mV from a holding potential of −90 mV. Current traces of hERG channels were elicited by applying a +40 mV pulse for 2.5 s, followed by a step to −120 mV for 2.5 s. Sodium current traces were evoked by 100 ms depolarization steps from a holding potential of −90 mV to 0 mV. Concentration-response curves were constructed by adding different AbeTx1 or analogs concentrations directly to the bath solution. The percentage of the KV blockade was plotted against the logarithm of the applied concentrations and fitted with the Hill Equation (1):y = 100/[1 + (IC50/[toxin]) × h](1) where y is the amplitude of the toxin-induced effect, IC50 is the toxin concentration at half-maximal efficacy, [toxin] is the toxin concentration, and h is the Hill coefficient. To investigate the effects on the voltage dependence of activation, current traces were evoked by 10 mV depolarization steps from a holding potential of −90 mV. Data were normalized to the maximal K^+ current amplitude, plotted against prepulse potential, and fitted using the Boltzmann Equation (2):IK/Imax = [1 + (exp(Vg − V)/k] − 1(2) where Imax represents maximal potassium current (IK), Vg is the voltage corresponding to half-maximal current, and k is the slope factor. Each experimental data represents mean ± standard error of at least three oocytes (n ≥ 3) from different frogs. Effect of the toxin on current-voltage experiments was statistically examined by comparing the control condition and the presence of toxin using the Student’s paired t-test. P-values < 0.05 are considered to be statistically significant. Data were analyzed using Clampfit 10.4 (Molecular Devices, Sunnyvale, CA, USA) and Origin v8.1 software (Origin Lab, Northampton, MA, USA), under the institutional license of the University of São Paulo.
For orientation: In two-electrode clamp one electrode senses voltage and the other passes current.

Data set [2] deals with T2, rKV1.2 (Rattus norvegicus, UniProt P63142).
T2 construct: expressed in transfected cells; host or cells: Xenopus laevis oocytes injected with cRNA
Description: Two-electrode voltage-clamp on Xenopus laevis oocytes expressing rKV1.2. As to conditions: 3 µM AbeTx1; TEVC, X. laevis oocytes, 500 ms depolarization to 0 mV from holding −90 mV; mean ± SE, n ≥ 3; SEM; read-out: inhibition of KV1.2 current. How it is done: as §1, with “Oocytes were injected with 20–50 nL of cRNA at a concentration of 1 ng·nL^−1 using a microinjector (Drummond Scientific, Broomall, PA, USA). The oocytes were stored for 1–3 days at 16 °C until sufficient expression of voltage-gated ion channels was achieved. Oocytes were maintained in an ND96 solution (in mM: 96 NaCl, 2 KCl, 1.8 CaCl2, 2 MgCl2 and 5 HEPES; pH 7.4), supplemented with 50 µg·mL^−1 gentamicin sulfate.” left out
(§3) Two-electrode voltage-clamp recordings were performed at room temperature (18–22 °C) using a Geneclamp 500 amplifier (Molecular Devices, Sunnyvale, CA, USA) controlled by a pClamp data acquisition system (Axon Instruments, Union City, CA, USA). […] Whole-cell currents from oocytes were recorded 1–3 days after injection. […] Data were analyzed using Clampfit 10.4 (Molecular Devices, Sunnyvale, CA, USA) and Origin v8.1 software (Origin Lab, Northampton, MA, USA), under the institutional license of the University of São Paulo.

Data set [3] deals with T3, hKV1.3 (Homo sapiens, UniProt P22001).
T3 construct: expressed in transfected cells; host or cells: Xenopus laevis oocytes injected with cRNA
Description: Two-electrode voltage-clamp on Xenopus laevis oocytes expressing hKV1.3. As to conditions: 3 µM AbeTx1; TEVC, X. laevis oocytes, 500 ms depolarization to 0 mV from holding −90 mV; mean ± SE, n ≥ 3; SEM; read-out: inhibition of KV1.3 current. The method, then:
as §1, with “Oocytes were injected with 20–50 nL of cRNA at a concentration of 1 ng·nL^−1 using a microinjector (Drummond Scientific, Broomall, PA, USA). The oocytes were stored for 1–3 days at 16 °C until sufficient expression of voltage-gated ion channels was achieved. Oocytes were maintained in an ND96 solution (in mM: 96 NaCl, 2 KCl, 1.8 CaCl2, 2 MgCl2 and 5 HEPES; pH 7.4), supplemented with 50 µg·mL^−1 gentamicin sulfate.” left out
as §3

The target in data set [4] is T4, rKV1.6 (Rattus norvegicus, UniProt P17659).
T4 construct: expressed in transfected cells; host or cells: Xenopus laevis oocytes injected with cRNA
Description: Two-electrode voltage-clamp on Xenopus laevis oocytes expressing rKV1.6. Conditions: for IC50: concentration-response curve, percentage blocked current fitted with Hill equation, TEVC oocytes, 0 mV from −90 mV, read-out: KV1.6 IC50. The method, then: as §1, §2

Data set [5] deals with T5, Shaker IR (Drosophila melanogaster, UniProt P08510, DEL6-46).
T5 construct: expressed in transfected cells; host or cells: Xenopus laevis oocytes injected with cRNA
Description: Two-electrode voltage-clamp on Xenopus laevis oocytes expressing Shaker IR. As to conditions: 3 µM AbeTx1; TEVC, X. laevis oocytes, 500 ms depolarization to 0 mV from holding −90 mV; mean ± SE, n ≥ 3; SEM; read-out: inhibition of Shaker IR current. The method, then: as §1, with “Oocytes were injected with 20–50 nL of cRNA at a concentration of 1 ng·nL^−1 using a microinjector (Drummond Scientific, Broomall, PA, USA). The oocytes were stored for 1–3 days at 16 °C until sufficient expression of voltage-gated ion channels was achieved. Oocytes were maintained in an ND96 solution (in mM: 96 NaCl, 2 KCl, 1.8 CaCl2, 2 MgCl2 and 5 HEPES; pH 7.4), supplemented with 50 µg·mL^−1 gentamicin sulfate.” left out
as §3

The target of data set [6] is T6, hERG (Homo sapiens, UniProt Q12809).
T6 construct: expressed in transfected cells; host or cells: Xenopus laevis oocytes injected with cRNA
Description: Two-electrode voltage-clamp on Xenopus laevis oocytes expressing hERG (KV11.1). Conditions: 3 µM AbeTx1; TEVC, X. laevis oocytes, +40 mV pulse 2.5 s then −120 mV 2.5 s. The method, then:
as §1, with “Oocytes were injected with 20–50 nL of cRNA at a concentration of 1 ng·nL^−1 using a microinjector (Drummond Scientific, Broomall, PA, USA). The oocytes were stored for 1–3 days at 16 °C until sufficient expression of voltage-gated ion channels was achieved. Oocytes were maintained in an ND96 solution (in mM: 96 NaCl, 2 KCl, 1.8 CaCl2, 2 MgCl2 and 5 HEPES; pH 7.4), supplemented with 50 µg·mL^−1 gentamicin sulfate.” left out
as §3

Data set [7] concerns the target T7, rNaV1.2 (Rattus norvegicus, UniProt P04775).
T7 construct: expressed in transfected cells; host or cells: Xenopus laevis oocytes injected with cRNA
Description: Two-electrode voltage-clamp on Xenopus laevis oocytes expressing rNaV1.2. As to conditions: 3 µM AbeTx1; TEVC, X. laevis oocytes, 100 ms depolarization from −90 mV to 0 mV. The method, then:
as §1, with “Oocytes were injected with 20–50 nL of cRNA at a concentration of 1 ng·nL^−1 using a microinjector (Drummond Scientific, Broomall, PA, USA). The oocytes were stored for 1–3 days at 16 °C until sufficient expression of voltage-gated ion channels was achieved. Oocytes were maintained in an ND96 solution (in mM: 96 NaCl, 2 KCl, 1.8 CaCl2, 2 MgCl2 and 5 HEPES; pH 7.4), supplemented with 50 µg·mL^−1 gentamicin sulfate.” left out
as §3

In data set [8] the target is T8, rNaV1.4 (Rattus norvegicus, UniProt P15390).
T8 construct: expressed in transfected cells; host or cells: Xenopus laevis oocytes injected with cRNA
Description: Two-electrode voltage-clamp on Xenopus laevis oocytes expressing rNaV1.4. As to conditions: 3 µM AbeTx1; TEVC, X. laevis oocytes, 100 ms depolarization from −90 mV to 0 mV. The method, then: as §1, with “Oocytes were injected with 20–50 nL of cRNA at a concentration of 1 ng·nL^−1 using a microinjector (Drummond Scientific, Broomall, PA, USA). The oocytes were stored for 1–3 days at 16 °C until sufficient expression of voltage-gated ion channels was achieved. Oocytes were maintained in an ND96 solution (in mM: 96 NaCl, 2 KCl, 1.8 CaCl2, 2 MgCl2 and 5 HEPES; pH 7.4), supplemented with 50 µg·mL^−1 gentamicin sulfate.” left out
as §3

Positions of bridges follow the written chain, without caps; N, C: chain ends. Residues, ends and D or L forms follow the SMILES beside them.

T4 sequence (P17659 whole entry): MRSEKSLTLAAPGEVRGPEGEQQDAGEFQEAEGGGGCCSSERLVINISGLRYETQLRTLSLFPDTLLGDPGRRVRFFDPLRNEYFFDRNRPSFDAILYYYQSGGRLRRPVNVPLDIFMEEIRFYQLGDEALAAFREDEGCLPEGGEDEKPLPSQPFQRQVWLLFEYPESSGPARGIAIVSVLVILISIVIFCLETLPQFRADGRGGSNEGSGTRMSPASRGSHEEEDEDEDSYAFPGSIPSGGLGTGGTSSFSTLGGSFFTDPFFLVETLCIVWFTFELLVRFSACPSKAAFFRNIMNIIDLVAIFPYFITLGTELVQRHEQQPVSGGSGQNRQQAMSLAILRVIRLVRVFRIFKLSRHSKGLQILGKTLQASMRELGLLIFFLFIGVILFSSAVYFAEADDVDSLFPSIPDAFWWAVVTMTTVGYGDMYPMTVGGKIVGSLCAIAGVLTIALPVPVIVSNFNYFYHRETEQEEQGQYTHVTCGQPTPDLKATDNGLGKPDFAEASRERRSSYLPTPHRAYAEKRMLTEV
T1 sequence (P10499 whole entry): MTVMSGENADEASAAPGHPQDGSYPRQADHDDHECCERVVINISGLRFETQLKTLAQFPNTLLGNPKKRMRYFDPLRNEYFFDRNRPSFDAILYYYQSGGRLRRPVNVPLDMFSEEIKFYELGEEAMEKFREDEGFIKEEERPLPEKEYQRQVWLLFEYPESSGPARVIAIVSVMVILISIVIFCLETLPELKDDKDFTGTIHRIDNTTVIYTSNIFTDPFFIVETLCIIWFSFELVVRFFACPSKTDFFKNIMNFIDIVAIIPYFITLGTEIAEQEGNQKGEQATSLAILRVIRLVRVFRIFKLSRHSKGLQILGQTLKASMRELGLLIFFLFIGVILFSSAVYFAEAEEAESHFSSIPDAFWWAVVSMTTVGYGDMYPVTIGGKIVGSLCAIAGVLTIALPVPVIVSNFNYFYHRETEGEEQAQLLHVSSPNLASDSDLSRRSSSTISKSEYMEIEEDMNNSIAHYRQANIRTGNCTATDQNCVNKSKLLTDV
T6 sequence (Q12809 whole entry): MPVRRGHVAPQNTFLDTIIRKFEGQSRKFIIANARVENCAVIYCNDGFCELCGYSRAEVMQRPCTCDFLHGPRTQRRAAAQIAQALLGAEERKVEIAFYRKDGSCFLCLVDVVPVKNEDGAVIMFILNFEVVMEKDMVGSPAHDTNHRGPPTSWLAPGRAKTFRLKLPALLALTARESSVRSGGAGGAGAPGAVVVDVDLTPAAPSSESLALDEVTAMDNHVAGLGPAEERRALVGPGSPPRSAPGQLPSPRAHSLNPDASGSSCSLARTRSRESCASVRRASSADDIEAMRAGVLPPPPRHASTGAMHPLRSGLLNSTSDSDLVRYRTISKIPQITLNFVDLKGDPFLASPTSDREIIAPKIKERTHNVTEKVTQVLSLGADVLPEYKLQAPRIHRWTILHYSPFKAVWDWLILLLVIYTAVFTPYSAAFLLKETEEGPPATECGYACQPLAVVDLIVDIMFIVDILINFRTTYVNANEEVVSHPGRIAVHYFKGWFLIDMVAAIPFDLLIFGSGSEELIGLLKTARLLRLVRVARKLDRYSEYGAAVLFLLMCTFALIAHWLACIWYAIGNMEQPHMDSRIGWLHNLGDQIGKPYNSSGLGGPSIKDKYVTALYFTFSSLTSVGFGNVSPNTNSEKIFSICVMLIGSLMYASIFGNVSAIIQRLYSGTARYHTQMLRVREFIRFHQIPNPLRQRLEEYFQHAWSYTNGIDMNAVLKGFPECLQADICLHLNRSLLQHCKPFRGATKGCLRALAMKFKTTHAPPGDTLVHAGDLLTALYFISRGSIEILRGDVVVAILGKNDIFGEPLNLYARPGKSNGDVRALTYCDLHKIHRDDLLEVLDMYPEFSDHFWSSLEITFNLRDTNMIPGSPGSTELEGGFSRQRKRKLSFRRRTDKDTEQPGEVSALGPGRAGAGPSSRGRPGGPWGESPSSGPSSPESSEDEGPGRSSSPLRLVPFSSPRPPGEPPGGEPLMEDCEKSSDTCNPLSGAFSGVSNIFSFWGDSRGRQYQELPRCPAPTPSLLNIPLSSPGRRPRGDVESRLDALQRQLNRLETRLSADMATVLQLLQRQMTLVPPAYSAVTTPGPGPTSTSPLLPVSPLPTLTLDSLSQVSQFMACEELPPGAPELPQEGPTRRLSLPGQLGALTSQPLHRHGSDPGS
T8 sequence (P15390 whole entry): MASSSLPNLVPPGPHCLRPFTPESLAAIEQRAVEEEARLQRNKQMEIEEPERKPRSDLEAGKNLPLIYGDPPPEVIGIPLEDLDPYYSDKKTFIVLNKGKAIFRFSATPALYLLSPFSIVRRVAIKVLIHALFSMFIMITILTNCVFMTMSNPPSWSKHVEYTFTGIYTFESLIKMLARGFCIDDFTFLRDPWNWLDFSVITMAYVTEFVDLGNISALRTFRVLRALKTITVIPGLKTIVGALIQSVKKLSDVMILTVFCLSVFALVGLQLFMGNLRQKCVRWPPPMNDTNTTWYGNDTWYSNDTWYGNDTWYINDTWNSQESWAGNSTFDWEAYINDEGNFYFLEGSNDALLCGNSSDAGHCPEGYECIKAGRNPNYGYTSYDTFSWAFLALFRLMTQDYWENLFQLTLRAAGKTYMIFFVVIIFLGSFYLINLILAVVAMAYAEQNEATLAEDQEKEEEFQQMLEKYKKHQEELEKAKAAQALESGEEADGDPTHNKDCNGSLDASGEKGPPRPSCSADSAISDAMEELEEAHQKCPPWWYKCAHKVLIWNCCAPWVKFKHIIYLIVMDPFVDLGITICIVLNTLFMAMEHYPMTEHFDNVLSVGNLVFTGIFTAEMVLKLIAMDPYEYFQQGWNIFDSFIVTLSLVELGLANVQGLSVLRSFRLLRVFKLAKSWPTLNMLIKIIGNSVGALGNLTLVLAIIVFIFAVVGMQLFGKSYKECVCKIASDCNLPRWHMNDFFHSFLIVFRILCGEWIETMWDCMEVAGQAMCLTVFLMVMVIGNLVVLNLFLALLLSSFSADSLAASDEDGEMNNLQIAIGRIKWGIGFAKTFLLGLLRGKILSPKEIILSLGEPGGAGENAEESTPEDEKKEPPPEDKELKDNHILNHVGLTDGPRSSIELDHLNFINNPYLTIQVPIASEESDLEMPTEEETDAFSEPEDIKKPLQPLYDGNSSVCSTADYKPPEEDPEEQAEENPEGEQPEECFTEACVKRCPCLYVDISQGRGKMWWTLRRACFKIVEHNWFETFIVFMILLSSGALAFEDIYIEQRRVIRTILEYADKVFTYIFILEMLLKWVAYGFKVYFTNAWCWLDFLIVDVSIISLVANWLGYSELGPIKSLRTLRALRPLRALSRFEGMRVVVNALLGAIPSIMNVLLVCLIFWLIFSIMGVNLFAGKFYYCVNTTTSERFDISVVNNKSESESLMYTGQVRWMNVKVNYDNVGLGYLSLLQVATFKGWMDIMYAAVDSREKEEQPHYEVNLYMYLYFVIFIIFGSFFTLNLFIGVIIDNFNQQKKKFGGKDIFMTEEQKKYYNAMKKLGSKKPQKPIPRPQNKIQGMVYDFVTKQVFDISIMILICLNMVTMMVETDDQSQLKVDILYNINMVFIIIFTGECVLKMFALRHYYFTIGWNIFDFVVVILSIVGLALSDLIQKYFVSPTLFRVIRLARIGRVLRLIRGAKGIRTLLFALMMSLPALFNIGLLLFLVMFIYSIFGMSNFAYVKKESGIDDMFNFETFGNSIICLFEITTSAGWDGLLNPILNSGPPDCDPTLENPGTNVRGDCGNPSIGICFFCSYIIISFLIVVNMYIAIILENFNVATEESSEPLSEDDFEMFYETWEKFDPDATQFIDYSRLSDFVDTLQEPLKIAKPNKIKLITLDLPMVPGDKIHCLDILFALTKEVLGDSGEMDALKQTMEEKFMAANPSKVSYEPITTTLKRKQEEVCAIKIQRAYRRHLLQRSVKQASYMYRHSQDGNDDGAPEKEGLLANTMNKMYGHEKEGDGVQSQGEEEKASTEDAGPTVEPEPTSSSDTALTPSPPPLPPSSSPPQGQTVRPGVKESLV
T3 sequence (P22001 whole entry): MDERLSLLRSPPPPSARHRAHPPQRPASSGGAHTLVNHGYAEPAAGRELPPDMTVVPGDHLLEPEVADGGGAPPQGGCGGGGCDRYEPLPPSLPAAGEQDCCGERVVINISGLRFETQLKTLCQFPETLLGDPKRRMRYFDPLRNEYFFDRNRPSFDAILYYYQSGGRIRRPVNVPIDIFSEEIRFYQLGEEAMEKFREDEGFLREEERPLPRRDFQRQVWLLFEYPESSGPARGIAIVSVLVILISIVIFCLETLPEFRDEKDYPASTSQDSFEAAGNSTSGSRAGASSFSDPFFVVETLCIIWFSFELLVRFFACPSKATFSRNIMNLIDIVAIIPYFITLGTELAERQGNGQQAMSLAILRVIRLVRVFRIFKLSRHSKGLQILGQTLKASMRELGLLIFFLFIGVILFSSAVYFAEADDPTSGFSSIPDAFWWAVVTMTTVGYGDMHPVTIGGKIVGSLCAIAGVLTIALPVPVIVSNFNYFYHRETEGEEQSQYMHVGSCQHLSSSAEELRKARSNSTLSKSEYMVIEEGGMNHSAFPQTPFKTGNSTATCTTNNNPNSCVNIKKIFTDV
T2 sequence (P63142 whole entry): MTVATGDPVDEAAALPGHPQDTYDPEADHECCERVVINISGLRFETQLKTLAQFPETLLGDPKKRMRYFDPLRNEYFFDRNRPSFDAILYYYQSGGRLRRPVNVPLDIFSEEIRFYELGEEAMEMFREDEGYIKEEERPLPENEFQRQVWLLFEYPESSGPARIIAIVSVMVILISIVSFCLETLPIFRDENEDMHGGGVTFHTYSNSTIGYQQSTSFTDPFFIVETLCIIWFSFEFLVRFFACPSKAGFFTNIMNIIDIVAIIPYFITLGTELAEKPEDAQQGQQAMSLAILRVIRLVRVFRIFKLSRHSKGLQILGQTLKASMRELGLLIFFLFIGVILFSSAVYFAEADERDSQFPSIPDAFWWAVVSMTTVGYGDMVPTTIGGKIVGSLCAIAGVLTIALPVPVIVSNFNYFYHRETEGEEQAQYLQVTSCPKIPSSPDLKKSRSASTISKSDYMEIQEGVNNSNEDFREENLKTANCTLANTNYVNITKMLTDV

As usually defined, the inhibition is how much of the control response was suppressed. As usually defined, the IC50 is the concentration needed to halve the response being measured. Consider `C[C@@H](O)[C@@H]1NC(=O)[C@H](CCCCN)NC(=O)[C@@H](NC(=O)[C@@H](N)CCCNC(=N)N)CSSC[C@@H](C(=O)NCC(=O)O)NC(=O)[C@H](CC(N)=O)NC(=O)[C@@H]2CCCN2C(=O)[C@H](CCCCN)NC(=O)[C@@H]2CCCN2C(=O)[C@H](CCCNC(=N)N)NC(=O)[C@@H]2CSSC[C@H](NC1=O)C(=O)N[C@@H](CO)C(=O)N[C@@H](CCCCN)C(=O)NCC(=O)N[C@@H](CCCNC(=N)N)C(=O)N2` [AbeTx1] (H-RCKTCSKGRCRPKPNCG-OH; disulfide 2-16, 5-10), for which the inhibition at 3 µM in data set [1] (3 µM AbeTx1, TEVC, X. laevis oocytes, 500 ms depolarization to 0 mV from holding −90 mV, mean ± SE, n ≥ 3, SEM, read-out: inhibition of KV1.1 current) came to 83.7 ± 1.45%; in data set [2] it was 95.3 ± 1.45%; in data set [3], 19.7 ± 2.18%; in data set [4] (3 µM AbeTx1, TEVC, X. laevis oocytes, 500 ms depolarization to 0 mV from holding −90 mV, mean ± SE, n ≥ 3, SEM, read-out: inhibition of KV1.6 current), 95 ± 2.44%; in data set [5] it was 15.5 ± 1.8%. For the same molecule, the “reduction of KV1.1 current, toxin added on top of TEA” value in data set [1] (AbeTx1 600 nM applied to bath already containing 200 μM TEA, n = 6) came out at 71.20 ± 2.18%. Moreover, the “reduction of the KV1.1 K+ current at +70 mV” value in data set [1] (AbeTx1 600 nM, test potential +70 mV from holding −90 mV, n = 6) is 11.07 ± 1.12%. In addition, in data set [1] (AbeTx1 600 nM, test potential −20 mV from holding −90 mV, n = 6), the “reduction of the KV1.1 K+ current at −20 mV” value was found to be 53.47 ± 5.07%. The IC50 in data set [1] (mean ± SE, n ≥ 3, SEM) was 0.672 ± 0.15 µM; in data set [4] (mean ± SE, n ≥ 3, SEM), 0.116 ± 0.0314 µM. In data set [4] (AbeTx1 120 nM applied to bath already containing 920 μM TEA), the “reduction of KV1.6 current, toxin added on top of TEA” value was 55.33 ± 2.47%. Further, the “effect on KV11.1 (hERG) current” value in data set [6] is “not affected”. Moreover, the “activity on NaV1.2” value in data set [7] was “no activity”. Further, in data set [8], the “activity on NaV1.4” value is “no activity”.

As for `C[C@@H]1NC(=O)[C@@H](NC(=O)[C@@H](N)CCCNC(=N)N)CSSC[C@@H](C(=O)NCC(=O)O)NC(=O)[C@H](CC(N)=O)NC(=O)[C@@H]2CCCN2C(=O)[C@H](CCCCN)NC(=O)[C@@H]2CCCN2C(=O)[C@H](CCCNC(=N)N)NC(=O)[C@@H]2CSSC[C@H](NC(=O)[C@H]([C@@H](C)O)NC1=O)C(=O)N[C@@H](CO)C(=O)N[C@@H](CCCCN)C(=O)NCC(=O)N[C@@H](CCCNC(=N)N)C(=O)N2` [Lys3Ala] (H-RCATCSKGRCRPKPNCG-OH; disulfide 2-16, 5-10), the IC50 in data set [1] (mean ± SE, n ≥ 3, SEM) turned out to be 27.5 µM; in data set [4] (mean ± SE, n ≥ 3, SEM), 18.9 µM.

These data come from paper PMC6213216, “AbeTx1 Is a Novel Sea Anemone Toxin with a Dual Mechanism of Action on Shaker-Type K^+ Channels Activation” (Marine Drugs, 2018).
